The target of experiment [1] is Platelet-activating factor receptor (Rattus norvegicus) (UniProt P46002). Nature of the experiment: In vivo inhibition of 10 nmole/kg PAF-induced hemoconcentration was determined at 1 mg/kg peroral administration. Type of experiment: functional, organism-based. On the set-up: dose 1 mg/kg.
In experiment [2] the test system is Rattus norvegicus. Kind of experiment: Compound inhibits 10 nmole/kg PAF-induced hemoconcentration and plasma N-acetyl-beta-glucosaminidase increase in male rats. Type of experiment: functional.
In experiment [3] the target is Platelet-activating factor receptor (Rattus norvegicus) (UniProt P46002). Nature of the experiment: In vivo inhibition of 10 nmole/kg PAF-induced plasma N-acetyl-beta-glucosaminidase (NAGA) after oral administration to rats. Type of experiment: organism-based. On the set-up: concentration or dose not given beside the values.
Experiment [4] deals with T1, Platelet-activating factor receptor (Homo sapiens, UniProt P25105). Kind of experiment: In vitro inhibition of [3H]-C18 PAF binding to human platelet membrane Platelet activating factor receptor. Conditions: concentration not given here. Also on record: concentration or dose not given beside the values.
Experiment [5] addresses T1, Platelet-activating factor receptor. Kind of experiment: Compound was evaluated for inhibitory activity of binding of [3H]-C18 PAF to human platelet membrane Platelet activating factor receptor.
For experiment [6] the target is unchanged. Kind of experiment: Compound was evaluated for inhibition of binding of [3H]-C18 PAF to human platelet membrane Platelet activating factor receptor.
Experiment [7] has as its system Rattus norvegicus. Kind of experiment: Drop in blood pressure was observed after 15 minutes of intravenous administration of 0.2 mg/kg compound. The format is functional.
Experiment [8] relates to Rattus norvegicus. Nature of the experiment: Compound inhibits 10 nmole/kg PAF-induced hemoconcentration and plasma N-acetyl-beta-glucosaminidase increase in female rats. The format is functional.
A further experiment is filed under the species Homo sapiens. Nature of the experiment: Inhibitory activity of compound was determined by 3E-7M PAF-induced degranulation of PAFas measured by myeloperoxidase secretion. The format is functional.
Experiment [9] relates to Rattus norvegicus. Kind of experiment: In vivo inhibition of 10 nmole/kg PAF-induced hemoconcentration was determined at 1 mg/kg peroral administration in rats. Type of experiment: functional. Conditions: route oral.
The target of experiment [10] is T1, Platelet-activating factor receptor. Kind of experiment: In vitro inhibition of [3H]-C18 PAF binding to human platelet membrane Platelet activating factor receptor was determined.

The values that follow come from ChEMBL document CHEMBL1126400, “Synthesis and biological activity of the platelet-activating factor antagonist ()-trans-2-(3-methoxy-4-phenylsulfonylethoxy-5-n-propylsulfonylphenyl)-5-(3,4,5-trimethoxyphenyl)tetrahydrofuran (L-671,284) and its analogs” (Bioorg Med Chem Lett, 1992).

pIC50, pKi: −log10 of the molar value.

T1 sequence (P25105 whole entry): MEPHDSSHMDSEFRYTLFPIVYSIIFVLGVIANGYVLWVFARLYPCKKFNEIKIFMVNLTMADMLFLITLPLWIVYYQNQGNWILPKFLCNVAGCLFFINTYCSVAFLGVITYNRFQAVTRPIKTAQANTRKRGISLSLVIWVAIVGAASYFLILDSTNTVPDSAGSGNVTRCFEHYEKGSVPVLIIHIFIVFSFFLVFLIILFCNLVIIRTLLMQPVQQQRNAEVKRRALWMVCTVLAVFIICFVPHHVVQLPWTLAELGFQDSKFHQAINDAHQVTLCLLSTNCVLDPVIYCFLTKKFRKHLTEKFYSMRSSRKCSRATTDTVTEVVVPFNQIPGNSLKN
Sequence of Platelet-activating factor receptor (Rattus norvegicus) (P46002 whole entry): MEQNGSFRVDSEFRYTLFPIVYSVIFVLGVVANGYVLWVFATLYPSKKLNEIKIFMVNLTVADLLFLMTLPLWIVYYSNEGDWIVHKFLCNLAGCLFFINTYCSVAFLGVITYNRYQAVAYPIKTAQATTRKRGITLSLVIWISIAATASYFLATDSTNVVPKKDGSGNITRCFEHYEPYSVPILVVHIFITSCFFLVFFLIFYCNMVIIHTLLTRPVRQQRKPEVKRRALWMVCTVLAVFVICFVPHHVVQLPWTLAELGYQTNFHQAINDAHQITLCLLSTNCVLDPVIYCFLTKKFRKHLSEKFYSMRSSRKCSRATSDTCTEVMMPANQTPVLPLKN

One may read the inhibition as the percentage by which the read-out fell short of the control. Broadly, the ED50 is the dose at which the effect has come halfway, by size or by number of responders. In general, pIC50 refers to the negative decadic logarithm of the IC50, by convention in mol/L. One may read the pKi as −log10 of the Ki, conventionally taken in molar units. As to `CCCS(=O)(=O)c1cc(C2CC[C@@H](c3cc(OC)c(OC)c(OC)c3)O2)cc(OC)c1OCCS(=O)(=O)c1ccccc1` (some centres not stated), the inhibition in [1] stood at 94%; in experiment [3], 94%; in [4], 72%. In addition, the figures for the ED50 in the experiment on Rattus norvegicus [2] and with Rattus norvegicus [8] were 0.26 mg/kg and 0.22 mg/kg, respectively. Moreover, the negative-log IC50 (pIC50) in experiment [5] was 9.00; in the experiment filed under Homo sapiens, 9.11. In experiment [6], the pKi was 9.00. In addition, in the experiment on Rattus norvegicus [7], the “Decrease in blood pressure” value amounted to 79 mmHg.

As usually defined, the inhibition in vivo is the change of the read-out against control, counted positive when it falls. In the case of `CCCS(=O)(=O)c1cc(C2CC[C@@H](c3cc(OC)c(OC)c(OC)c3)O2)cc(OC)c1OCC[S+]([O-])c1ccc(O)cc1` (some centres not stated), the inhibition in [3] came to 44%; in experiment [4], 73%. The inhibition in vivo at 1 mg/kg in the experiment on Rattus norvegicus [9] was 25%.

Compound `CCCS(=O)(=O)c1cc(C2CC[C@@H](c3cc(OC)c(OC)c(OC)c3)O2)cc(OC)c1OCCS(=O)(=O)c1ccc(N)cc1` (some centres not stated) displayed an inhibition in experiment [4] of 41%.

Regarding `CCCS(=O)(=O)c1cc(C2CC[C@@H](c3cc(OC)c(OC)c(OC)c3)O2)cc(OC)c1OCCSc1ccccc1O` (some centres not stated), in experiment [4], the inhibition was 58%.

In the case of `CCCS(=O)(=O)c1cc(C2CC[C@@H](c3cc(OC)c(OC)c(OC)c3)O2)cc(OC)c1OCCS(=O)(=O)c1ccncc1` (some centres not stated), the inhibition in experiment [1] came to 0%; in experiment [3] it was 5%; in experiment [4], 45%.

`CCCS(=O)(=O)c1cc(C2CC[C@@H](c3cc(OC)c(OC)c(OC)c3)O2)cc(OC)c1OCCSc1ccc(N)cc1` (some centres not stated): the inhibition is 58% in experiment [3] and 60% in experiment [4]. Besides, at 1 mg/kg the inhibition in vivo in the experiment with Rattus norvegicus [9] was 56%.

On to `CCCS(=O)(=O)c1cc(C2CC[C@@H](c3cc(OC)c(OC)c(OC)c3)O2)cc(OC)c1OCCSc1ccc(C#N)cc1` (some centres not stated), for which the inhibition in [1] came to 33%; in [3], 39%; in [4], 93%.

Take `CCCS(=O)(=O)c1cc(C2CC[C@@H](c3cc(OC)c(OC)c(OC)c3)O2)cc(OC)c1OCCSc1cccc(O)c1` (some centres not stated): the inhibition amounted to 27% in [1], 29% in experiment [3] and 61% in experiment [4].

With `CCCS(=O)(=O)c1cc(C2CC[C@@H](c3cc(OC)c(OC)c(OC)c3)O2)cc(OC)c1OCCSc1cccc(N)c1` (some centres not stated), the inhibition in [3] came out at 4%; in experiment [4], 80%. The compound also gave an inhibition in vivo at 1 mg/kg in the experiment with Rattus norvegicus [9] of 7%.

As to `CCCS(=O)(=O)c1cc(C2CC[C@@H](c3cc(OC)c(OC)c(OC)c3)O2)cc(OC)c1OCC[S+]([O-])c1ccc(C#N)cc1` (some centres not stated), the inhibition came out at 5% in experiment [1], 0% in [3] and 74% in experiment [4].

Regarding `CCCS(=O)(=O)c1cc(C2CC[C@@H](c3cc(OC)c(OC)c(OC)c3)O2)cc(OC)c1OCCSc1ccncc1` (some centres not stated), the inhibition in experiment [1] turned out to be 15%; in experiment [3], 15%; in experiment [4] it was 73%.

Take `CCCS(=O)(=O)c1cc(C2CC[C@@H](c3cc(OC)c(OC)c(OC)c3)O2)cc(OC)c1OCCSc1ncc[nH]1` (some centres not stated): the figures for the inhibition in [1], in [3] and in experiment [4] were 11%, 13% and 60%, respectively.

For the compound `CCCS(=O)(=O)c1cc(C2CC[C@@H](c3cc(OC)c(OC)c(OC)c3)O2)cc(OC)c1OCC[S+]([O-])c1ccc(N)cc1` (some centres not stated), the inhibition in experiment [4] was found to be 0%.

For `CCCS(=O)(=O)c1cc(C2CC[C@@H](c3cc(OC)c(OC)c(OC)c3)O2)cc(OC)c1OCCSc1ccc(O)cc1` (some centres not stated), the inhibition came out at 63% in [1], 75% in [3] and 100% in experiment [4].

For `CCCS(=O)(=O)c1cc(C2CC[C@@H](c3cc(OC)c(OC)c(OC)c3)O2)cc(OC)c1OCCSc1ccc(C(=O)O)cc1` (some centres not stated), the inhibition in [1] stood at 11%; in experiment [3], 23%; in [4], 38%.

Compound `CCCOc1c(OC)cc([C@H]2CC[C@H](c3cc(OC)c(OC)c(OC)c3)O2)cc1S(C)(=O)=O` (single isomer, unassigned) had a pKi in experiment [10] of 7.84.

For the compound `CCCS(=O)(=O)c1cc(C2CC[C@@H](c3cc(OC)c(OC)c(OC)c3)O2)cc(OC)c1OCCSc1ccc(C(N)=O)cc1` (some centres not stated), the inhibition was 26% in [1], 32% in [3] and 70% in [4].

As to `CCCS(=O)(=O)c1cc(C2CC[C@@H](c3cc(OC)c(OC)c(OC)c3)O2)cc(OC)c1OCCS(=O)(=O)c1ccc(C#N)cc1` (some centres not stated), the results for the inhibition in [1], in experiment [3] and in [4] were 0%, 1% and 69%, respectively.

As to `CCCS(=O)(=O)c1cc(C2CC[C@@H](c3cc(OC)c(OC)c(OC)c3)O2)cc(OC)c1OCCS(=O)(=O)c1ccc(O)cc1` (some centres not stated), the inhibition in experiment [3] came to 13%; in experiment [4], 88%. For the same compound, the inhibition in vivo at 1 mg/kg with Rattus norvegicus [9] worked out at 7%.

As to `CCCS(=O)(=O)c1cc(C2CC[C@@H](c3cc(OC)c(OC)c(OC)c3)O2)cc(OC)c1OCCSc1ccccc1` (some centres not stated), the inhibition is 95% in experiment [1], 84% in experiment [3] and 93% in experiment [4].

Consider `CCCS(=O)(=O)c1cc(C2CC[C@@H](c3cc(OC)c(OC)c(OC)c3)O2)cc(OC)c1OCCSc1ccc(N(C)C)cc1` (some centres not stated), for which the inhibition amounted to 66% in experiment [1], 57% in experiment [3] and 66% in experiment [4].

In experiment [4], `CCCS(=O)(=O)c1cc(C2CC[C@@H](c3cc(OC)c(OC)c(OC)c3)O2)cc(OC)c1OCCSc1ccccc1N` (some centres not stated) registered an inhibition of 57%.
